One assay has as its target Tubulin. The assay can be described thus: Inhibition of tubulin polymerization (unknown origin). The class given is protein-complex assay, Homo sapiens.
The subject of the next assay is A549. The experiment in a line: Cytotoxicity against human A549 cells. The class given is functional, cell-based.
The next assay concerns the target Tubulin (Homo sapiens) (UniProt P68371+Q9H4B7+P0DPH7+P68366+Q13509+Q71U36+P04350+Q3ZCM7+P07437+P68363+Q9BQE3+Q6PEY2+Q13885+Q9BVA1+Q9BUF5). The experiment in a line: Displacement of [3H]colchicine from tubulin (unknown origin) at 5 uM. The assay is classed as protein-complex assay.

With `COC(=O)Nc1nc2ccc(C(=O)c3ccc(OC)cc3O)cc2[nH]1`, the values for the IC50 against Tubulin and in the assay on A549 were 2200 nM and more than 100 µM, respectively. On Tubulin (Homo sapiens), this compound returned an inhibition of 38%.

Turning to `COC(=O)Nc1nc2ccc(C(=O)c3sccc3O)cc2[nH]1`, the values for the IC50 against Tubulin and with A549 were 2000 nM and 6 µM, respectively. The compound further gave an inhibition at Tubulin (Homo sapiens) of 56%.

Consider `COC(=O)Nc1nc2ccc(/C=C\c3cc(OC)c(OC)c(OC)c3)cc2[nH]1`, for which the IC50 on Tubulin amounted to 1600 nM; in the assay on A549, 12 µM. The compound further displayed an inhibition on Tubulin (Homo sapiens) of 39%.

With `COC(=O)Nc1nc2ccc(C(=O)c3ccc(O)cc3O)cc2[nH]1`, the values for the concentration for half-maximal inhibition (IC50) on Tubulin and in the assay with A549 were more than 20000 nM and more than 100 µM, respectively.

One may read the IC50 as the concentration needed to halve the response being measured. One may read the inhibition as the drop in the measured response relative to a control, in per cent. A low value points to little suppression.

The values above are taken from ChEMBL document CHEMBL3400129, “Novel hybrid nocodazole analogues as tubulin polymerization inhibitors and their antiproliferative activity” (Bioorg Med Chem Lett, 2015).
